Measured values from patent US20260078133.
Where two headings read alike, the source gives them in different places.

Conditions: ester bond, 18-membered ring, DCM

Which ring closure, isolated yield (EDCI/HOBT/DIEA, 6.0 mM) does the source give for “benzyl-4-(5-((64S,4S)-4-((tert-butoxycarbonyl) amino)-11-ethyl-10,10-dimethyl-5,7-dioxo-11H-8-oxa-62,63-diaza-1 (5,3)-indola-6(2,4)-bicyclo[3.1.1]heptana-2(1,3)-benzenacycloundecaphane-12-yl)-6-((S)-1-methoxyethyl)pyridin-3-yl)piperazine-1-carboxylate” here?
The ring closure, isolated yield was 27%.

Which ring closure, isolated yield (from CCn1c(-c2cc(N3CCN(C4CC4)CC3)cnc2[C@H](C)OC)c(CC(C)(C)CO)c2cc(-c3csc(C[C@H](NC(=O)OC(C)(C)C)C(=O)N(C)NCC(=O)O)n3)ccc21, PyBOP/DMAP, 5.9 mM, 0.0 °C, 1.0 h) does the source give for CCn1c(-c2cc(N3CCN(C4CC4)CC3)cnc2[C@H](C)OC)c2c3cc(ccc31)-c1csc(n1)C[C@H](NC(=O)OC(C)(C)C)C(=O)N(C)NCC(=O)OCC(C)(C)C2 here?
Its ring closure, isolated yield is 27%.

For CCn1c(-c2cccnc2[C@H](C)OC)c2c3cc(ccc31)N1CCO[C@@H](C[C@H](NC(=O)OC(C)(C)C)C(=O)N3N[C@H](C(=O)OCC(C)(C)C2)C2CC3C2)C1, which ring closure, isolated yield (from CCn1c(-c2cccnc2[C@H](C)OC)c(CC(C)(C)CO)c2cc(N3CCO[C@@H](C[C@H](NC(=O)OC(C)(C)C)C(=O)N4N[C@H](C(=O)O)C5CC4C5)C3)ccc21, PyBOP/DMAP, 2.6 mM, 16.0 h) is on record?
The ring closure, isolated yield was 96.2%.

For “tert-butyl ((1^2S,12S)-2^1-ethyl-2^2-(2-((S)-1-methoxyethyl)pyridin-3-yl)-4,4,10-trimethyl-7,11-dioxo-2^1H-6-oxa-9,10-diaza-1(4,2)-morpholina-2(5,3)-indolacyclotridecaphane-12-yl)carbamate”, which ring closure, isolated yield (EDCI/HOBT/DIEA, 6.5 mM) is on record?
Its ring closure, isolated yield is 44%.

Which ring closure, isolated yield (from CCn1c(-c2cc(N3CCN(C(=O)OCc4ccccc4)CC3)cnc2[C@H](C)OC)c(CC(C)(C)CO)c2cc(N3CCO[C@@H](C[C@H](NC(=O)OC(C)(C)C)C(=O)N4N[C@H](C(=O)O)C5CC4C5)C3)ccc21, PyBOP/DMAP, 9.8 mM, 35.0 °C, 0.5 h) does the source give for CCn1c(-c2cc(N3CCN(C(=O)OCc4ccccc4)CC3)cnc2[C@H](C)OC)c2c3cc(ccc31)N1CCO[C@@H](C[C@H](NC(=O)OC(C)(C)C)C(=O)N3N[C@H](C(=O)OCC(C)(C)C2)C2CC3C2)C1 here?
Its ring closure, isolated yield is 16%.

With C=C[C@@H]1CCN2N[C@@H]1C(=O)OCC(C)(C)Cc1c(-c3cc(N4CCN(C(=O)OCc5ccccc5)CC4)cnc3[C@H](C)OC)n(CC)c3ccc(cc13)-c1csc(n1)C[C@H](NC(=O)OC(C)(C)C)C2=O as the compound, how does the ring closure, isolated yield (from C=C[C@@H]1CCN(C(=O)[C@H](Cc2nc(-c3ccc4c(c3)c(CC(C)(C)CO)c(-c3cc(N5CCN(C(=O)OCc6ccccc6)CC5)cnc3[C@H](C)OC)n4CC)cs2)NC(=O)OC(C)(C)C)N[C@@H]1C(=O)O, EDCI/HOBT/DIEA, 10.0 mM, 16.0 h) read?
Its ring closure, isolated yield is 36.7%.

Which ring closure, isolated yield (from CCn1c(-c2cc(N3CCN(C(=O)OCc4ccccc4)CC3)cnc2[C@H](C)OC)c(CC(C)(C)CO)c2cc(-c3csc(C[C@H](NC(=O)OC(C)(C)C)C(=O)N(C)NCC(=O)O)n3)ccc21, EDCI/HOBT/DIEA, 4.3 mM, 16.0 h) does the source give for CCn1c(-c2cc(N3CCN(C(=O)OCc4ccccc4)CC3)cnc2[C@H](C)OC)c2c3cc(ccc31)-c1csc(n1)C[C@H](NC(=O)OC(C)(C)C)C(=O)N(C)NCC(=O)OCC(C)(C)C2 here?
Its ring closure, isolated yield is 38.2%.

With CCn1c(-c2cc(N3CCN(C4CC4)CC3)cnc2[C@H](C)OC)c2c3cc(ccc31)-c1nnc(o1)C[C@H](NC(=O)OCc1ccccc1)C(=O)N1N[C@H](C(=O)OCC(C)(C)C2)C2CC1C2 as the compound, how does the ring closure, isolated yield (from CCn1c(-c2cc(N3CCN(C4CC4)CC3)cnc2[C@H](C)OC)c(CC(C)(C)CO)c2cc(-c3nnc(C[C@H](NC(=O)OCc4ccccc4)C(=O)N4N[C@H](C(=O)O)C5CC4C5)o3)ccc21, PyBOP/DMAP, 6.6 mM, 16.0 h, 2 steps) read?
Its ring closure, isolated yield is 29%.

Which ring closure, isolated yield (from CCn1c(-c2cc(N3CCN(C)CC3)cnc2[C@H](C)OC)c(CC(C)(C)CO)c2cc(-c3csc(C[C@H](NC(=O)OC(C)(C)C)C(=O)N(C)NCC(=O)O)n3)ccc21, PyBOP/DMAP, 0.8 mM, 0.0 °C, 1.0 h) does the source give for CCn1c(-c2cc(N3CCN(C)CC3)cnc2[C@H](C)OC)c2c3cc(ccc31)-c1csc(n1)C[C@H](NC(=O)OC(C)(C)C)C(=O)N(C)NCC(=O)OCC(C)(C)C2 here?
Its ring closure, isolated yield is 42%.

Which ring closure, isolated yield (from CCn1c(-c2cc(N3CCN(C(=O)OCc4ccccc4)CC3)cnc2[C@H](C)OC)c(CC(C)(C)CO)c2cc(-c3csc(C[C@H](NC(=O)OC(C)(C)C)C(=O)N4N[C@@H](C(=O)O)C5CC4C5)n3)ccc21, EDCI/HOBT/DIEA, 5.2 mM, 35.0 °C, 16.0 h) does the source give for CCn1c(-c2cc(N3CCN(C(=O)OCc4ccccc4)CC3)cnc2[C@H](C)OC)c2c3cc(ccc31)-c1csc(n1)C[C@H](NC(=O)OC(C)(C)C)C(=O)N1N[C@@H](C(=O)OCC(C)(C)C2)C2CC1C2 here?
The ring closure, isolated yield was 49%.

For CCn1c(-c2cc(N3CCN(C)CC3)cnc2[C@H](C)OC)c2c3cc(ccc31)-c1csc(n1)C[C@H](NC(=O)OC(C)(C)C)C(=O)N1N[C@H](C(=O)OCC(C)(C)C2)C2CC1C2, which ring closure, isolated yield (from CCn1c(-c2cc(N3CCN(C)CC3)cnc2[C@H](C)OC)c(CC(C)(C)CO)c2cc(-c3csc(C[C@H](NC(=O)OC(C)(C)C)C(=O)N4N[C@H](C(=O)O)C5CC4C5)n3)ccc21, PyBOP/DMAP, 5.7 mM, 5.0 h) is on record?
The ring closure, isolated yield was 48.8%.
